Results published in patent US20100249419A1, “UTILIZATION OF NOVEL COMPOUNDS WITH AMYLOID AFFINITY AND METHOD OF PRODUCING THE SAME” (NIHON MEDI-PHYSICS CO., LTD., priority 2007, published 2010).

How the values were obtained:
[1] = molecular target: T1, aggregated Aβ (Aβ1-42) amyloid (Homo sapiens, UniProt P05067); assay: In vitro binding test: inhibition of [^125I]3′-I-BTA-0 binding to amyloid
T1 construct: Aβ1-42 (manufactured by Wako) was dissolved in phosphate buffer (pH 7.4); purchased Wako
Method: Affinity of the present compounds with amyloid was examined by the following in vitro binding tests.
The measured radioactivity level was defined as the background radioactivity level, and used in the calculation of the inhibition ratio (hereinafter referred to as BG).
(9) Using the radioactivity levels measured above in (7) and (8), the inhibition ratio was determined by the following formula (1).
A graph in which values converted by probit transformation from the obtained inhibition ratios were plotted relative to logarithms of concentrations of compounds for evaluation was prepared to obtain an approximate straight line by the least square method.

[2] = test system: Salmonella typhimurium TA98; assay: Reverse mutation test (Ames test), TA98; type: cell-based
Method: (§1) In order to examine gene mutagenicity of Compounds 3, 5 and 8, reverse mutation test using Salmonella typhimurium TA98 and TA100 (hereinafter referred to as Ames test) was conducted.
(§2) The test was conducted without addition of S9mix and with addition of S9mix. Dimethylsulfoxide (hereinafter referred to as DMSO) was used as a negative control. A positive control was 2-(2-furyl)-3-(5-nitro-2-furyl)acrylamide (hereinafter referred to as AF-2) in case S9mix was not added, and 2-aminoanthracene (hereinafter referred to as 2-AA) in case S9mix was added.
(§3) As a sample solution to be added to a test plate, each compound was dissolved in DMSO to prepare a solution at a concentration of 50 mg/mL, and further, each solution was diluted with DMSO to prepare a solution with 7 dosage (geometric ratio 3). As a sample solution for preparing a sample of positive control, when TA98 was used as a test strain without addition of S9mix, a solution of AF-2 (compound concentration: 1 μg/mL) in DMSO was prepared; when TA100 was used as a test strain without addition of S9mix, a solution of AF-2 (compound concentration: 0.1 μg/mL) in DMSO was prepared; when TA98 was used as a test strain with addition of S9mix, a solution of 2-AA (compound concentration: 5 μg/mL) in DMSO was prepared; and when TA100 was used as a test strain with addition of S9mix, a solution of 2-AA (compound concentration: 10 μg/mL) in DMSO was prepared.
(§4) After each sample solution to be examined and a test strain (TA98 or TA100) were mixed together so as to make the addition amount of each sample to be 0.1 mL/plate, the mixture was multilayered using soft agar on a medium of a test plate, and then incubated at 37° C. for 48 hours. Separately, after each sample solution to be examined, S9mix and a test strain were mixed together so as to make the addition amount of each sample to be 0.1 mL/plate, the mixture was multilayered using soft agar on a medium of a test plate, and then incubated at 37° C. for 48 hours. On the other hand, only DMSO was used as a sample solution to perform the same procedure as above for the negative control. […]

[3] = test system: Salmonella typhimurium TA100; assay: Reverse mutation test (Ames test), TA100; type: cell-based
Method: as §1, §2, §3, §4

[4] = test system: bone marrow cells of Crlj:CD1(ICR) male mouse; assay: Micronucleus test; type: in vivo; settings: single oral administration 250-2000 mg/kg, 24 and 48 hours
Method: In order to study mutagenicity (in vivo) of Compounds 3 and 7, induction of micronucleated polychromatic erythrocyte (hereinafter referred to as MNPCE) was examined using bone marrow cells of Crlj:CD1(ICR) male mouse.
0 mg/kg (negative control group), 250, 500, 1000 and 2000 mg/kg (test sample group) were set as doses for the test. Mice were sacrificed 24 and 48 hours after single oral administration, and bone marrow smear was prepared and observed. Further, a single dose of MMC at 2 mg/kg was abdominally administrated in positive control group, mice were sacrificed 24 hours after the administration, and then bone marrow smear was prepared and observed.
As statistical analysis, significance tests were conducted by Wilcoxon rank sum test for the appearance frequency of MNPCE and the ratio of polychromatic erythrocyte (hereinafter referred to as PCE) to the total red blood cell (hereinafter referred to as RBC) in each administration group concerning the test sample and positive control groups relative to the negative control group and concerning these groups relative to each other where the significance level was set to less than 5% and less than 1%, respectively.

[5] = [^11C]-labeled, rats; cited from earlier work
[6] = Partition coefficient based on the octanol extraction method; type: physicochemical; settings: octanol / 10 mmol/L phosphate buffer (pH 7.4)
Method: Partition coefficients based on the octanol extraction method (hereinafter referred to as log Poctanol) were measured, which are generally known as an indicator of permeability of compounds through the blood-brain barrier (hereinafter referred to as BBB).
A diethyl ether solution of Compound 1 prepared in Example 3 (Example 8), a diethyl ether solution of Compound 2 prepared in Example 6 (Example 9), and a diethyl ether solution of [^123I]-IMPY prepared in Reference Example 1 (Comparative Example 4) were each diluted with 10 mg/mL ascorbic acid-containing physiological saline solution, and adjusted to a radioactive concentration of 20-30 MBq/mL. To 2 mL of octanol, 10 μL each of the prepared sample solutions was added, 2 mL of 10 mmol/L phosphate buffer (pH 7.4) was added, followed by stirring for 30 seconds. After the mixture was centrifuged with a low-speed centrifuge (2000 rpm×60 min.), the octanol layer and the water layer were sampled each in an amount of 1 mL, and subjected to measurement of radioactivity count with an autowell gamma system (Type: ARC-301B, manufactured by Aloka). Using the obtained radioactivity count, log Poctanol was calculated in accordance with the equation (2).
A diethyl ether solution (Example 20) of Compound 4 prepared in Example 16, a diethyl ether solution (Example 21) of Compound 6 prepared in Example 19, and a diethyl ether solution (Comparative Example 7) of [^123I]-IMPY were each diluted with a 10 mg/mL ascorbic acid-containing physiological saline solution to adjust to a radioactive concentration of 20-30 MBq/mL. To 2 mL of octanol, 10 μL each of the prepared sample solution was added, and 2 mL of 10 mmol/L phosphate buffer (pH 7.4) was further added, followed by stirring for 30 seconds. After the mixture was centrifuged with a low-speed centrifuge (2000 rpm×60 min.), the octanol layer and the water layer were sampled each in an amount of 1 mL, and subjected to measurement of radioactivity count with an autowell gamma system (Type: ARC-301B, manufactured by Aloka). Using the obtained radioactivity count, logPoctanol was calculated in accordance with the equation (4).

[7] = Transferability into brain and clearance; type: in vivo, male Wistar rats; settings: intravenous injection, rats
Method: Using Compound 1 (Example 10) and Compound 2 (Example 11), a time course change of radioactive accumulation in brain of male Wistar rats (7-week old) was measured.
A diethyl ether solution of Compound 1 (Example 10) prepared in Example 3, a diethyl ether solution of Compound 2 (Example 11) prepared in Example 6 and a diethyl ether solution of [^123I]-IMPY (Comparative Example 5) prepared in Reference Example 1 were each diluted with 10 mg/mL ascorbic acid-containing physiological saline solution to adjust to a radioactive concentration of 8-12 MBq/mL. 0.05 mL each of the prepared sample solutions was injected under thiopental anesthesia into the tail vein of the rats. The rats were sacrificed by bleeding from abdominal artery, and brains were removed and subjected to measurement of mass of brains and further subjected to measurement of radioactivity (hereinafter referred to as A in this Example) with a single channel analyzer (detector type: SP-20 manufactured by OHYO KOKEN KOGYO Co., Ltd.) 2, 5, 30 and 60 minutes after the injection. Further, the radioactivity level of the rest of the whole body was measured in the same manner as above (hereinafter referred to as B in this Example). Using these measurement results, radioactive distribution per unit weight of brain (% ID/g) at the respective time points were calculated in accordance with the following formula (3).
Three animals were used for the experiment at the respective time points.
Using Compound 4 and Compound 6, a time course change of radioactive accumulation in brain of male Wistar rats (7-week old) was measured.
Compound 4 (Example 22), Compound 6 (Example 23) and a solution of [^123I]-IMPY (Comparative Example 8) prepared above in Reference Example 1 were each diluted with a 10 mg/mL ascorbic acid-containing physiological saline solution to prepare solutions (20-31 MBq/mL in radioactive concentration). 0.05 mL each of the prepared sample solutions was injected under thiopental anesthesia into the tail vein of the respective Wistar rat (7-week old). The rats were sacrificed by bleeding from abdominal artery, and brains were removed and subjected to measurement of mass of brains and further subjected to measurement of radioactivity (hereinafter referred to as A in this Example) with a single channel analyzer (detector type: SP-20 manufactured by OHYO KOKEN KOGYO Co., Ltd.) 2, 5, 30 and 60 minutes after the injection. Further, the radioactivity level of the rest of the whole body was measured in the same manner as above (hereinafter referred to as B in this Example). Using these measurement results, radioactive distribution per unit weight of brain (% ID/g) at the respective time points were calculated in accordance with the following formula (5).

[8] = molecular target: T2, aggregated Aβ (Aβ1-40) injected into amygdaloid nucleus (Homo sapiens, UniProt P05067); assay: Ex vivo autoradiogram using rats of amyloid injected model (Aβ1-40); type: in vivo, male Wistar rat; settings: brain slice 60 minutes after tail vein injection
T2 construct: Aβ1-40 (manufactured by Peptide Institute, INC.) was dissolved in phosphate buffer (pH 7.4); purchased Peptide Institute, INC
Method: (1) Aβ1-40 (manufactured by Peptide Institute, INC.) was dissolved in phosphate buffer (pH 7.4) and shaken at 37° C. for 72 hours, to obtain a 1 mg/mL suspension of aggregated Aβ (hereinafter referred to as amyloid suspension in this Example).
(2) 2.5 μL (corresponding to […]) of the amyloid suspension was injected into an amygdaloid nucleus on one side of a male Wistar rat (7-week old). As a control, 2.5 μL of a phosphate buffered physiological saline solution (pH 7.4) was injected into an amygdaloid nucleus on the other side of the rat. The rats were examined 1 day after the injection of the amyloid suspension and the phosphate buffered physiological saline solution (pH 7.4).
(3) [^123I]-IMPY was dissolved in a 10 mg/mL ascorbic acid-containing physiological saline solution to obtain a sample solution (29 MBq/mL in radioactivity concentration in the sample solution). This solution was injected under thiopental anesthesia into the rat through the tail vein (dosage: 0.5 mL, dosed radioactivity: 14.5 MBq equivalent).
(4) Brain was removed 60 minutes after the injection to prepare a brain slice of 10 μm in thickness with a microtome (type: CM3050S, manufactured by LEICA). The brain slice was exposed to an imaging plate for 20 hours, and then image analysis was carried out by use of a Bio-imaging Analyzer (type: BAS-2500; manufactured by FUJIFILM Corporation). […]

[9] = TA98, without addition of S9mix
[10] = TA100, without addition of S9mix

T1 sequence (P05067 672-713): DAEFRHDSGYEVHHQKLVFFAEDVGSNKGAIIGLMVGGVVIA
T2 sequence (P05067 672-711): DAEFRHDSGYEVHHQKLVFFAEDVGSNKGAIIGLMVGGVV

## OCCOc1ccc(-c2cn3cc(I)ccc3n2)cc1 [Compound 3, 2-[4′-(2″-hydroxyethoxy)phenyl]-6-iodoimidazo[1,2-a]pyridine]
[1]; [^125I]3′-I-BTA-0 400 pmol/L, amyloid 1 μmol/L, 22° C., 3 hours
  IC50: 66.9 nM
[1]; unit inferred
  IC50: < 100 nM
[2]; TA98, with addition of S9mix
  Mutagenicity: Negative
[2]; [9]
  Mutagenicity: Negative
[3]; TA100, with addition of S9mix
  Mutagenicity: Negative
[3]; [10]
  Mutagenicity: Negative
[4]
  Mutagenicity (in vivo), induction of MNPCE: negative

## OCCCOc1ccc(-c2cn3cc(I)ccc3n2)cc1 [Compound 7, 2-[4′-(3″-hydroxypropoxy)phenyl]-6-iodoimidazo[1,2-a]pyridine]
[2]; TA98, with addition of S9mix
  Mutagenicity: Negative
[2]; [9]
  Mutagenicity: Negative
[3]; TA100, with addition of S9mix
  Mutagenicity: Negative
[3]; [10]
  Mutagenicity: Negative
[4]
  Mutagenicity (in vivo), induction of MNPCE: negative

## CNc1ccc(/C=C/c2ccc(O)cc2)cc1 [SB-13, (E)-4-methylamino-4′-hydroxystilbene]
[5]
  Clearance from normal tissues: it cannot be said that the clearance is sufficiently fast

## CN(C)c1ccc(-c2cn3cc([123I])ccc3n2)cc1 [[^123I]-IMPY, reference compound]
[6]; Table 4, Examples 8-9
  logPoctanol value: 1.9
[6]; Table 6, Examples 20-21
  logPoctanol value: 2.1
[7]; After 2 min., Table 5
  Radioactive distribution per unit weight of brain: 1.19 % ID/g
[7]; After 2 min., Table 7
  Radioactive distribution per unit weight of brain: 1.19 % ID/g
[7]; After 5 min., Table 5
  Radioactive distribution per unit weight of brain: 0.97 % ID/g
[7]; After 5 min., Table 7
  Radioactive distribution per unit weight of brain: 0.97 % ID/g
[7]; After 30 min., Table 5
  Radioactive distribution per unit weight of brain: 0.23 % ID/g
[7]; After 30 min., Table 7
  Radioactive distribution per unit weight of brain: 0.23 % ID/g
[7]; After 60 min., Table 5
  Radioactive distribution per unit weight of brain: 0.09 % ID/g
[7]; After 60 min., Table 7
  Radioactive distribution per unit weight of brain: 0.09 % ID/g
[8]
  Accumulation of radioactivity in amygdaloid nucleus on the amyloid-injected side: marked accumulation of radioactivity
